Laboratory results as given in ChEMBL document CHEMBL2346658, “8,8-dialkyldihydroberberines with potent antiprotozoal activity” (J Nat Prod, 2013).
Where a name gives a salt, the structure may show the parent alone. Activity calls are given as the source filed them. The calls are words filed in the database; no cut-off is given here.

Columns and labels:
[1] = Binding affinity to poly(dA.dT) DNA (unknown origin) assessed as change in melting temperature
Leishmania donovani [2] = test: Antileishmanial activity against Leishmania donovani; type: functional, organism-based
[3] = test system: Trypanosoma brucei rhodesiense; test: Antitrypanosomal activity against Trypanosoma brucei rhodesiense STIB900 infected in NMRI mouse assessed as infection cure rate at 1 mg/kg/day for 4 days starting from 3 to 6 days post-infection measured on day 10; type: functional, organism-based
[4] = Selectivity index, ratio of IC50 for african green monkey Vero cells to IC50 for Trypanosoma brucei brucei blood-stream forms; type: toxicity, cell-based; conditions: read-out: Ratio IC50
Leishmania donovani [5] = test: Potency index, ratio of IC50 for chloroquine to IC50 for compound against Leishmania donovani; type: functional
Vero = test: Cytotoxicity against african green monkey Vero cells; type: cell-based; conditions: Chlorocebus sabaeus
[6] = Selectivity index, ratio of IC50 for african green monkey Vero cells to IC50 for Leishmania donovani; type: toxicity, cell-based; conditions: read-out: Ratio IC50
[7] = test system: Trypanosoma brucei brucei; test: Antitrypanosomal activity against Trypanosoma brucei brucei blood-stream forms; type: functional, organism-based
Plasmodium falciparum = test: Antimalarial activity against erythrocyte stage Plasmodium falciparum 3D7; type: functional, organism-based
[8] = Selectivity index, ratio of IC50 for african green monkey Vero cells to IC50 for erythrocyte stage Plasmodium falciparum 3D7; type: toxicity, cell-based; conditions: read-out: Ratio IC50
[9] = test system: Trypanosoma brucei rhodesiense; test: Antitrypanosomal activity against Trypanosoma brucei rhodesiense STIB900 infected in NMRI mouse assessed as infection cure rate at 1 mg/kg/day for 4 days starting from 3 to 6 days post-infection measured on day 7; type: functional, organism-based
Mus musculus = test: Toxicity in BALB/c mouse assessed as induction of overt toxicity at 10 mg/kg/day, ip for 5 days; type: organism-based; design: route intraperitoneal; conditions: in vivo, 120 h
Leishmania donovani [10] = test: Antileishmanial activity against Leishmania donovani LV82 infected in BALB/c mouse model of visceral leishmaniasis assessed as inhibition of liver parasitemia at 10 mg/kg/day, ip for 5 days starting 7 days post-infection; type: functional; conditions: route intraperitoneal
[11] = test system: Trypanosoma brucei rhodesiense; test: Antitrypanosomal activity against Trypanosoma brucei rhodesiense STIB900 infected in NMRI mouse assessed as infection cure rate at 10 mg/kg/day for 4 days starting from 3 to 6 days post-infection measured on day 7; type: functional, organism-based
[12] = test system: Trypanosoma brucei rhodesiense; test: Antitrypanosomal activity against Trypanosoma brucei rhodesiense STIB900 infected in NMRI mouse assessed as infection cure rate at 10 mg/kg/day for 4 days starting from 3 to 6 days post-infection measured on day 10; type: functional, organism-based

Row | Compound | ΔTm [1] | IC50 (Leishmania donovani [2]) | IC50 (Vero) | IC50 [7] | IC50 (Plasmodium falciparum) | inhibition in vivo at 10 mg/kg/day (Leishmania donovani [10]) | also measured
1 | CCC1(CC)c2c(ccc(OC)c2OC)C(=O)c2c3cc4c(cc3cc[n+]21)OCO4.[Cl-] | 0.5 °C | 290 nM | 39000 nM | 2 nM | 20 nM |  | Activity [3]: inactive; selectivity ratio [4]: 3000; Ratio IC50 (Leishmania donovani [5]): 4; selectivity ratio [6]: > 100; selectivity ratio [8]: > 600; Activity [9]: Active
2 | CCC1(CC)c2c(ccc(OC)c2OC)CC2c3cc4c(cc3CCN21)OCO4 (stereo unspecified) [8,8-DIETHYLCANADINE] |  | 8900 nM |  | 230 nM | 1700 nM |  | 
3 | COc1ccc2c(c1OC)C(C)(C)N1CCc3cc4c(cc3C1C2)OCO4 (stereo unspecified) [8,8-DIMETHYLCANADINE] |  | 7300 nM |  | 52000 nM | 7300 nM |  | 
4 | CCC1(CC)c2c(ccc(OC)c2OC)CC2=[N+]1CCc1cc3c(cc12)OCO3.[Cl-] [8,8-Diethyldihydroberberine] | 0.5 °C | 100 nM | 18000 nM | 5.3 nM | 77 nM | 29% | Activity (Mus musculus): Non-toxic; selectivity ratio [4]: 3000; selectivity ratio [6]: > 100; Activity [11]: Active; Activity [12]: inactive
5 | CCCC1(CCC)c2c(ccc(OC)c2OC)CC2=[N+]1CCc1cc3c(cc12)OCO3.[Cl-] [8,8-Dipropyldihydroberberine] | 0 °C | 550 nM | 19000 nM | 53 nM | 30 nM | 32% | Activity (Mus musculus): Non-toxic; Ratio IC50 (Leishmania donovani [5]): 4; selectivity ratio [8]: > 600
6 | COc1ccc2c(c1OC)C(C)(C)[N+]1=C(C2)c2cc3c(cc2CC1)OCO3.[Cl-] [8,8-dimethyldihydroberberine] | 0.3 °C | 200 nM | 8800 nM | 4600 nM | 63 nM | 46% | Activity (Mus musculus): Non-toxic
7 | C[C@@H]1[C@H](O)[C@@H](C)/C=C/C=C/C=C/C=C/C=C/C=C/C=C/[C@H](O[C@@H]2O[C@H](C)[C@@H](O)[C@H](N)[C@@H]2O)C[C@@H]2O[C@](O)(C[C@@H](O)C[C@@H](O)[C@H](O)CC[C@@H](O)C[C@@H](O)CC(=O)O[C@H]1C)C[C@H](O)[C@H]2C(=O)O [AMPHOTERICIN B] |  | 46 nM |  |  |  |  | 
8 | COc1ccc2cc3[n+](cc2c1OC)CCc1cc2c(cc1-3)OCO2 [BERBERINE SULFATE] | 3.5 °C | 17000 nM | > 200000 nM |  |  |  | 
9 | CCCCCCCCCCCCCCCCOP(=O)([O-])OCC[N+](C)(C)C [MILTEFOSINE] |  |  |  |  |  | 97% | 
10 | COc1cc([C@@H]2c3cc4c(cc3[C@H](O)[C@H]3COC(=O)[C@H]23)OCO4)cc(OC)c1OC [PODOFILOX] |  |  | 17 nM |  |  |  | 
11 | Cc1ccc(C(=O)Nc2ccc(S(=O)(=O)O)c3cc(S(=O)(=O)O)cc(S(=O)(=O)O)c23)cc1NC(=O)c1cccc(NC(=O)Nc2cccc(C(=O)Nc3cc(C(=O)Nc4ccc(S(=O)(=O)O)c5cc(S(=O)(=O)O)cc(S(=O)(=O)O)c45)ccc3C)c2)c1 [SURAMIN] |  |  |  | 130 nM |  |  | 
